The subject of assay [1] is Escherichia coli ATCC 25922. Put plainly: Rapid antibiotic susceptibility test (RAST) in microfluidic agarose channel (MAC), MIC by single-cell time-lapse imaging. Particulars: E. coli ATCC 25922, RAST method in MAC; for MIC: Escherichia coli, ATCC25922. It is filed as cell-based. As to the method: Radial microfluidic channels with six branches were formed using soft-lithography. First, SU8 mold (2015 SU8, Microchem) was fabricated by employing photolithography. Polydimethylsiloxane (PDMS, Dow Corning) was mixed with a curing agent (10:1, w/w) and poured into the SU8. After baking at 150° C. for 10 min, the PDMS was peeled off and attached to the PDMS-coated slide glass by O2 plasma treatment to obtain a radial microfluidic channel chip capable of testing antibiotics having five concentrations and a control with no antibiotic. There were six main channels that carried one side-branched channel each. […] A mixture of agarose and bacteria was allowed to flow in the main channels, and the bioactive agents were allowed to flow in the respective side-branched channels. In the middle of each main channel, there were anchors in the form of micro-sized posts for forming an interface between the agarose and each of the bioactive agents. The posts blocked the agarose from flowing into the side-branched channel. The sizes of the posts and the pitches between the posts were determined by mathematical calculations. For appropriate hydrophobicity to occur in the channel, the channel was prepared one day before experiment to increase the surface tension after O2 plasma treatment. Agarose is solidified at a temperature lower than 36° C. The cultured bacteria were mixed with 2% agarose (1:3, v/v) at 45° C. and immediately injected into the microfluidic channels. The agarose-bacteria mixture was solidified at 25° C. for 1 min. The obtained microfluidic agarose channel (MAC) chip was placed on a hot plate and incubated at 37° C. To provide nutrients, liquid CAMHB medium was supplied through the side-branched channels. The growth of the bacteria was monitored using a microscope. Bacterial growth was not inhibited and could be clearly monitored in the MAC system. Bacterial cell images were taken with a CCD camera; the images were then processed to determine the MIC values of the antibiotics. The image data were transformed into digital data using an image processing program, which is coded in Matlab. For the calculations, RGB images were transformed into grey formatted images. The background data were eliminated to obtain sharp data without noise. Then, the contrast was enhanced to change the processed images into binary format images. […] The Matlab program calculated the areas that were occupied by each bacterium. A longer incubation time allowed each bacterium to grow and occupy more area. The occupied areas were measured using the image processing program. […] Bacterial growth was monitored by using a microscope (40×) and a CCD camera. Images of bacterial growth were taken every hour and were analyzed by using the image processing program. […]

Assay [2] has as its system Pseudomonas aeruginosa ATCC 27853. Described as above. Format: cell-based. As to conditions: P. aeruginosa ATCC 27853, RAST method in MAC; for MIC: Pseudomonas aeruginosa, ATCC27853. The procedure: (§1) Radial microfluidic channels with six branches were formed using soft-lithography. First, SU8 mold (2015 SU8, Microchem) was fabricated by employing photolithography. Polydimethylsiloxane (PDMS, Dow Corning) was mixed with a curing agent (10:1, w/w) and poured into the SU8. After baking at 150° C. for 10 min, the PDMS was peeled off and attached to the PDMS-coated slide glass by O2 plasma treatment to obtain a radial microfluidic channel chip capable of testing antibiotics having five concentrations and a control with no antibiotic. There were six main channels that carried one side-branched channel each. […] A mixture of agarose and bacteria was allowed to flow in the main channels, and the bioactive agents were allowed to flow in the respective side-branched channels. In the middle of each main channel, there were anchors in the form of micro-sized posts for forming an interface between the agarose and each of the bioactive agents. The posts blocked the agarose from flowing into the side-branched channel. The sizes of the posts and the pitches between the posts were determined by mathematical calculations. For appropriate hydrophobicity to occur in the channel, the channel was prepared one day before experiment to increase the surface tension after O2 plasma treatment. Agarose is solidified at a temperature lower than 36° C. The cultured bacteria were mixed with 2% agarose (1:3, v/v) at 45° C. and immediately injected into the microfluidic channels. The agarose-bacteria mixture was solidified at 25° C. for 1 min. The obtained microfluidic agarose channel (MAC) chip was placed on a hot plate and incubated at 37° C. To provide nutrients, liquid CAMHB medium was supplied through the side-branched channels. The growth of the bacteria was monitored using a microscope. Bacterial growth was not inhibited and could be clearly monitored in the MAC system. Bacterial cell images were taken with a CCD camera; the images were then processed to determine the MIC values of the antibiotics. The image data were transformed into digital data using an image processing program, which is coded in Matlab. For the calculations, RGB images were transformed into grey formatted images. The background data were eliminated to obtain sharp data without noise. Then, the contrast was enhanced to change the processed images into binary format images. […] The Matlab program calculated the areas that were occupied by each bacterium. A longer incubation time allowed each bacterium to grow and occupy more area. The occupied areas were measured using the image processing program. 200 μl of Mueller-Hinton agar including 5×10^8 cells/ml bacterial cells and 600 μl of 2% liquid agarose at 45° C. was mixed thoroughly by a vortex generator (vortex Genie 2). The agarose-bacteria mixture was placed in the main channels of the microfluidic channel system using a syringe pump (KdScientific) at stable flow rate (2 ml/hr) to prevent bursting into the side-branched channels. After the liquid agarose was solidified at room temperature to immobilize the bacteria in the main channels, the MHA medium containing the antibiotic was injected into the side-branched channels using the syringe pump at a rate of 10 μl/hr to diffuse into the agarose-bacteria mixture. Bacterial growth was monitored by using a microscope (40×) and a CCD camera. Images of bacterial growth were taken every hour and were analyzed by using the image processing program. […] The obtained MIC values were verified by the conventional method (microdilution method) and compared with the MIC data of the CLSI. […] The images of the left group are RGB images before processing, and the images of the right group are images after processing for clear observation. After image processing, the bacteria that occupied the area were measured and plotted on the graph for different concentrations of gentamicin according to the incubation time. […] The MIC values were in the MIC ranges of the CLSI data.

The subject of assay [3] is Staphylococcus aureus ATCC 29213. The description is as above. Format: cell-based. Particulars: S. aureus ATCC 29213, RAST method in MAC; for MIC: Staphylococcus aureus, ATCC29213. The procedure: as §1
Assay [4] relates to E. coli ATCC 25922. Particulars: CLSI range; cited from earlier work.
In assay [5] the test system is S. aureus ATCC 29213. Particulars: CLSI range; cited from earlier work.
For assay [6], the system named is P. aeruginosa ATCC 27853. As to conditions: CLSI range; cited from earlier work.
The test system of assay [7] is P. aeruginosa ATCC 27853 biofilm. Put plainly: Antibiotic susceptibility of biofilms in the MAC system. Particulars: biofilm formation by 4 hr aging in the MAC system. It is filed as cell-based, Pseudomonas aeruginosa.

≈ marks a conversion by molar mass, not a printed value.

Take `NCC[C@H](O)C(=O)N[C@@H]1C[C@H](N)[C@@H](O[C@H]2O[C@H](CN)[C@@H](O)[C@H](O)[C@H]2O)[C@H](O)[C@H]1O[C@H]1O[C@H](CO)[C@@H](O)[C@H](N)[C@H]1O` [Amikacin]: the MIC in assay [1], in assay [2] and in assay [3] was 4 µg/mL (≈ 6.83 µM) each time. In addition, the entries for the “MIC, CLSI” value in assay [4], in assay [5] and in assay [6] were 0.5 to 4 µg/mL, 1 to 4 µg/mL and 1 to 4 µg/mL, respectively.

Turning to `CCn1cc(C(=O)O)c(=O)c2cc(F)c(N3CCNCC3)cc21` [Norfloxacin], the values for the MIC in assay [1], in assay [2] and in assay [3] were 0.03 µg/mL (≈ 0.0939 µM), 2 µg/mL (≈ 6.26 µM) and 0.5 µg/mL (≈ 1.57 µM), respectively. Further, the “MIC value after biofilm formation” value in assay [7] stood at 32 µg/mL (≈ 100 µM). Also, the results for the “MIC, CLSI” value in assay [4], in assay [5] and in assay [6] were 0.03 to 0.12 µg/mL, 0.5 to 2 µg/mL and 1 to 4 µg/mL, respectively.

For the molecule `CN(C)[C@@H]1C(O)=C(C(N)=O)C(=O)[C@@]2(O)C(O)=C3C(=O)c4c(O)cccc4[C@@](C)(O)[C@H]3C[C@@H]12` [Tetracycline], the MIC in assay [1] came to 1 µg/mL (≈ 2.25 µM); in assay [2], 32 µg/mL (≈ 72 µM); in assay [3], 0.5 µg/mL (≈ 1.13 µM).

gentamicin [Geninmycin]: the “MIC, RAST” value in assay [1] stood at 1 µg/mL; in assay [2] it was 2 µg/mL; in assay [3] it was 1 µg/mL. Moreover, the “MIC, CLSI” value was 0.25 to 1 µg/mL in assay [4], 0.12 to 1 µg/mL in assay [5] and 0.5 to 2 µg/mL in assay [6].
